Publication PMC12830207, “Targeting the protein–protein interaction between the CDC37 cochaperone and client kinases by an allosteric RAF dimer breaker” (The Journal of Biological Chemistry, 2025)
Entries after “also recorded” stand apart in the source; their conditions may differ.

What was measured:
[1] = tested on: MAPK proteins (BRAF, CRAF, MEK, pMEK, ERK, pERK); settings: HCT116, braftide alone; cited from earlier work
Method: HCT116 cells were treated with 17-AAG alone or in combination with braftide (Fig. 5, C and D). HSP90 monotherapy (17-AAG) depleted CRAF kinase level at a concentration of 2 μM (Fig. 5C), whereas braftide monotherapy ([23]) depleted RAF kinase levels at a concentration of 10 μM. To investigate potential synergy, we assessed combinatorial treatments in HCT116 cells, using a fixed concentration of 500 nM of the primary drug (braftide) with increasing concentrations (0 to 1 μM) of the secondary drug (17-AAG) (Fig. 5D).

HEK293 cells = assay: Annexin V apoptosis assay, HEK293; format: cell-based, human; settings: 0, 5, 10, 25, 50, 75, and 100 μM braftide, 4 h, n = 3
Method: (§1) HEK293 cells and HCT116 cells were treated with either control or braftide at the indicated concentrations for 4 h. After treatment, both the floating and adherent cell populations were collected and adjusted with PBS (final concentration: 1 × 10^5 cells/ml). The cells were then mixed with the Annexin V (Cytex; FCCH100108) reagent in a 5:1 ratio (100 μl of cells mixed with 20 μl of Annexin V reagent) and allowed to stain in the dark, at room temperature for 15 min. The cells were then analyzed on a Guava Muse Cell Analyzer (Millipore).

WM3629 cells [2] = settings: WM3629, reported; read-out: EC50, braftide, WM3629; cited from earlier work
Text: Based on the observed synergistic effects of inhibiting the ternary complex, the antiproliferative effects were explored using combinatorial treatment in two RAF-dimer–dependent cell lines: HCT116 and WM3629. HCT116 cells mainly rely on the wildtype BRAF–CRAF heterodimer and BRAF–BRAF homodimer to relay the MAPK signal, whereas WM3629 cells contain the BRAF D594G mutant, which is a kinase-dead mutant and depends on dimerization with CRAF for activation ([34]).

CDC37–BRAF interaction = assay: Co-IP of CDC37-FLAG with BRAF-V5 in HCT116; format: cell-based; settings: HCT116, 5 µM braftide, three biological replicates
Method: (§2) HEK293 cells were seeded at 1(10)^6 cells per well for a 6-well plate or 5(10)^6 for 10 cm dishes and incubated until 40% to 60% confluency. Transfection was carried out using a 1:3 DNA:PEI-MAX ratio in OPTI-MEM and allowed 48 h for protein expression. For peptide assays, 48 h post-transfection, cells were treated with TAT–braftide carried in OPTI-MEM at indicated concentrations. Cells were harvested in cold PBS. Harvested cells were lysed in 4% SDS or modified radioimmunoprecipitation assay (RIPA) for co-IP experiments. Quantification of total protein by the bicinchoninic acid assay was carried out according to the manufacturer's protocols (Pierce; catalog no.: 23225).
(§3) Transfected HEK293 cells were treated with the indicated treatments and harvested in cold PBS. […] Samples were analyzed via immunoblot.
(§4) Western blot band densities were quantified with ImageJ software (National Institutes of Health) and normalized to the indicated loading control. Statistical significance was determined through one-/two-way ANOVA, where indicated, followed by Tukey's honest significant difference post hoc test with corresponding p values (∗p < 0.05, ∗∗p < 0.002, ∗∗∗p < 0.0002, and ∗∗∗∗p < 0.0001). […]

CDC37–AKT1 interaction = assay: Co-IP of CDC37-FLAG with AKT1; format: cell-based, human (HEK293); settings: HEK293, 25 µM braftide, bortezomib pretreated, n=4
Method: as §2, §3, §4

[3] = tested on: CRAF–CDC37/HSP90 chaperone complex; assay: Co-IP of MBP-CRAF-FLAG with endogenous CDC37–HSP90 chaperone complex; format: cell-based, human (HEK293); settings: HEK293, 50 μM braftide, 4 h, bortezomib pretreatment, three biological replicates
Method: as §2, §3, §4

CDC37–CRAF interaction = assay: Co-IP of CDC37-FLAG with CRAF-HA in HEK293; format: cell-based, human (HEK293); settings: HEK293, 25 μM braftide, bortezomib pretreatment
Method: as §2, §3, §4

HCT116 cells = assay: Annexin V apoptosis assay, HCT116; format: cell-based; settings: for apoptotic cell death, braftide + 17-AAG combination versus 17-AAG monotherapy: HCT116, Annexin V, n=3, Fig. S12, B and C
Method: as §1

WM3629 cells [4] = assay: WST-1 cell viability assay, WM3629; format: cell-based; settings: WM3629, WST-1, 24 h
Method: HCT116 and WM3629 cells were seeded onto polylysine-coated, clear-bottomed, 96-well plates at 15(10)^3 cells per well and allowed to incubate for 24 h. Cells were treated with braftide and 17-AAG mixtures at indicated concentrations for 24 h (37 °C). The WST-1 cell viability assay was carried out according to the manufacturer's protocols (Roche; 11644807001) for 4 h, and absorbance readings were taken at 450 nM in a CLARIOstar plate reader. For the dose–response curves of braftide and 17-AAG, the data were fit to the 4-parameter logistic equation (dose–response fitting equation) in GraphPad Prism (Dotmatics): y=A1+(A2−A1)÷(1+10^(LOGx0−x)p)
Error bars are indicative of the SEM of each point.

RAF kinase = settings: in vitro and in cells; cited from earlier work
Text: The sequence of braftide mirrors the residues spanning the tail end of the αC helix and a region known as the αC helix–β4 loop, which includes three key residues: BRAF R509, L515, and M517, critical for RAF dimerization.

## GRKKRRQRRRPQ-miniPEG-TRHVNILLFM [Braftide]
[1]
  concentration at which RAF kinase levels are depleted, braftide monotherapy: 10 µM
HEK293 cells
  apoptosis (Annexin V), HEK293: triggers apoptosis
HEK293 cells; listed as braftide
  apoptosis (Annexin V), HEK293: triggered dose-dependent apoptosis
WM3629 cells [2]
  EC50: 11.1 ± 1.12 µM
CDC37–BRAF interaction
  CDC37–BRAF interaction: decreases its association with coimmunoprecipitated BRAF-V5 and CRAF-HA
CDC37–BRAF interaction; listed as braftide
  CDC37–BRAF interaction: reduced the CDC37–RAF interaction at lower doses than in HEK293 cells
CDC37–AKT1 interaction
  association of CDC37 with AKT1: disrupts client AKT1 from CDC37-FLAG in HEK293 cells
CDC37–AKT1 interaction; listed as braftide
  association of CDC37 with AKT1: reduced association of CDC37 with AKT1
[3]
  association of CRAF with CDC37 and HSP90: reduced their association with CDC37 and HSP90 compared with the nontreated control
CDC37–CRAF interaction
  CDC37–CRAF complex: reduced the CDC37–client BRAF–CRAF complex
HCT116 cells; 0, 5, 10, 25, 50, 75, and 100 μM braftide, 4 h, n = 3, listed as braftide
  apoptosis (Annexin V), HCT116: triggered dose-dependent apoptosis; also recorded: HCT116 cells showed higher sensitivity to braftide compared with HEK293
HCT116 cells
  apoptotic cell death, braftide + 17-AAG combination versus 17-AAG monotherapy: synergizes with 17-AAG in HCT116 cells to trigger cell death at lower treatment concentrations
HCT116 cells; listed as braftide
  apoptotic cell death, braftide + 17-AAG combination versus 17-AAG monotherapy: significant increase in apoptotic cell death with the combination therapy compared with monotherapy
WM3629 cells [4]
  synergy of braftide and 17-AAG, WM3629: synergy between braftide and 17-AAG
RAF kinase
  RAF kinase activity: inhibits RAF kinase activity
  paradoxical activation induced by ATP-competitive inhibitors: mitigates paradoxical activation induced by ATP-competitive inhibitors, both in vitro and in cells
